Measurements: patent US20060276464A1, “Diarylsulfone sulfonamides and use thereof” (Wyeth, priority 2005, published 2006)
pEC50, pIC50: −log10 of the molar value.

Assays:
SFRP-1 [1] = biological target: T1, SFRP-1 (Homo sapiens, UniProt Q8N474); assay: Fluorescence polarization binding assay (competitive displacement of a probe compound from SFRP-1); settings: fluorescence anisotropy, 45 nM SFRP-1, 20 nM probe;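 note: test compound competes with a fluorescent probe held by SFRP-1, seen as a drop in probe anisotropy after incubation in darkness, with anisotropy as function of rising compound dose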
T1 sequence (Q8N474 32-314): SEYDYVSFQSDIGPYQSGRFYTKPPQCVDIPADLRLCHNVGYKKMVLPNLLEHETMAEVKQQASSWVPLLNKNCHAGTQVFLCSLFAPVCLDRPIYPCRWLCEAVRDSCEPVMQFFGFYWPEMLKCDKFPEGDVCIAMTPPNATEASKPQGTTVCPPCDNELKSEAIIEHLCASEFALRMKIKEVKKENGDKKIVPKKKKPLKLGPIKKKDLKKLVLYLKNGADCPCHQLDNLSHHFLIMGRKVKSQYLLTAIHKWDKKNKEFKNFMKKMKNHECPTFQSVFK

SFRP-1 [2] = biological target: T1, SFRP-1; assay: Cell-based assay for in vitro measurement of SFRP-1/SARP2 antagonist activity (U2OS cells co-transfected with 16x TCF-tk-Luciferase reporter, Wnt and hSFRP-1); settings: for fold induction at 10 µM: U2OS, read-out: Fold Induction with SFRP-1, U2OS cells, single dose 10 μM, luciferase reporter, fold induction over SFRP-1 control;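 for all read-outs here: U2OS cells co-transfected with a TCF-tk luciferase reporter, a Wnt vector, hSFRP-1 or empty vector and CMV-βgal, luciferase luminescence read in cell lysates alongside βgal activity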

SMILES | pIC50 (SFRP-1 [1]) | pEC50 (SFRP-1 [2]) | fold induction at 10 µM (SFRP-1 [2])
CC(C)c1ccc(S(=O)(=O)c2ccc(F)cc2)cc1S(=O)(=O)NC1CCN(C(=S)Nc2cccc3ccccc23)CC1 [Example 690, 4-[({5-[(4-fluorophenyl)sulfonyl]-2-isopropylphenyl}sulfonyl)amino]-N-1-naphthylpiperidine-1-carbothioamide] | 5.52 | 5.08 | 2.3
CC(C)c1ccc(S(=O)(=O)c2ccc(F)cc2)cc1S(=O)(=O)NC1CCN(C(=S)Nc2ccccc2F)CC1 [Example 691, N-(2-fluorophenyl)-4-[({5-[(4-fluorophenyl)sulfonyl]-2-isopropylphenyl}sulfonyl)amino]piperidine-1-carbothioamide] | 6.00 | 5.07 | 2.8
Cc1ccccc1NC(=S)N1CCC(NS(=O)(=O)c2cc(S(=O)(=O)c3ccc(F)cc3)ccc2C(C)C)CC1 [Example 692, 4-[({5-[(4-fluorophenyl)sulfonyl]-2-isopropylphenyl}sulfonyl)amino]-N-(2-methylphenyl)piperidine-1-carbothioamide] | 5.77 | 5.07 | 3
CCCCNC(=S)N1CCC(NS(=O)(=O)c2cc(S(=O)(=O)c3ccc(F)cc3)ccc2C(C)C)CC1 [Example 694, N-butyl-4-[({5-[(4-fluorophenyl)sulfonyl]-2-isopropylphenyl}sulfonyl)amino]piperidine-1-carbothioamide] | 5.54 | 5.06 | 2.6
COC(=O)c1ccc(NC(=S)N2CCC(NS(=O)(=O)c3cc(S(=O)(=O)c4ccc(F)cc4)ccc3C(C)C)CC2)cc1 [Example 696, methyl 4-[({4-[({5-[(4-fluorophenyl)sulfonyl]-2-isopropylphenyl}sulfonyl)amino]piperidin-1-yl}carbonothioyl)amino]benzoate] | 5.96 | 4.83 | 2.2
COC(=O)CNC(=S)N1CCC(NS(=O)(=O)c2cc(S(=O)(=O)c3ccc(F)cc3)ccc2C(C)C)CC1 [Example 697, methyl N-({4-[({5-[(4-fluorophenyl)sulfonyl]-2-isopropylphenyl}sulfonyl)amino]piperidin-1-yl}carbonothioyl)glycinate] | 6.40 | 6.34 | 3.7
CC(C)c1ccc(S(=O)(=O)c2ccc(F)cc2)cc1S(=O)(=O)NC1CCN(C(=S)NCCN2CCOCC2)CC1 [Example 698, 4-[({5-[(4-fluorophenyl)sulfonyl]-2-isopropylphenyl}sulfonyl)amino]-N-(2-morpholin-4-ylethyl)piperidine-1-carbothioamide] | 6.15 | 6.22 | 3
CC(C)c1ccc(S(=O)(=O)c2ccc(F)cc2)cc1S(=O)(=O)NC1CCN(C(=S)Nc2cccc([N+](=O)[O-])c2)CC1 [Example 699, 4-[({5-[(4-fluorophenyl)sulfonyl]-2-isopropylphenyl}sulfonyl)amino]-N-(3-nitrophenyl)piperidine-1-carbothioamide] | 5.80 | 5.01 | 2.9
CC(C)c1ccc(S(=O)(=O)c2ccc(F)cc2)cc1S(=O)(=O)NC1CCN(C(=S)Nc2cccc(C(=O)O)c2)CC1 [Example 700, 3-[({4-[({5-[(4-fluorophenyl)sulfonyl]-2-isopropylphenyl}sulfonyl)amino]piperidin-1-yl}carbonothioyl)amino]benzoic acid] | 6.30 | 6.40 | 1.7
CC(C)c1ccc(S(=O)(=O)c2ccc(F)cc2)cc1S(=O)(=O)NC1CCN(C(=S)Nc2cccnc2)CC1 [Example 701, 4-[({5-[(4-fluorophenyl)sulfonyl]-2-isopropylphenyl}sulfonyl)amino]-N-pyridin-3-ylpiperidine-1-carbothioamide] | 6.15 | 6.16 | 3
O=C(c1ccc(OC(F)(F)F)cc1)N1CCC(NS(=O)(=O)c2cc(S(=O)(=O)c3ccccc3)ccc2C(F)(F)F)CC1 [Example 709, 5-(phenylsulfonyl)-N-{1-[4-(trifluoromethoxy)benzoyl]piperidin-4-yl}-2-(trifluoromethyl)benzenesulfonamide] | 6.40 | 5.63 | 4.5
O=C(c1ccc(C(F)(F)F)cc1F)N1CCC(NS(=O)(=O)c2cc(S(=O)(=O)c3ccccc3)ccc2C(F)(F)F)CC1 [Example 710, N-{1-[2-fluoro-4-(trifluoromethyl)benzoyl]piperidin-4-yl}-5-(phenylsulfonyl)-2-(trifluoromethyl)benzenesulfonamide] | 6.15 | – | 3.5
O=C(c1ccc(Cl)c(Cl)c1)N1CCC(NS(=O)(=O)c2cc(S(=O)(=O)c3ccccc3)ccc2C(F)(F)F)CC1 [Example 712, N-[1-(3,4-dichlorobenzoyl)piperidin-4-yl]-5-(phenylsulfonyl)-2-(trifluoromethyl)benzenesulfonamide] | 6.30 | – | 2.9
COc1cc(C(=O)N2CCC(NS(=O)(=O)c3cc(S(=O)(=O)c4ccccc4)ccc3C(F)(F)F)CC2)cc(Cl)n1 [Example 715, N-[1-(2-chloro-6-methoxyisonicotinoyl)piperidin-4-yl]-5-(phenylsulfonyl)-2-(trifluoromethyl)benzenesulfonamide] | 6.40 | 5.89 | 4.9
CC(C)(C)c1ccc(C(=O)N2CCC(NS(=O)(=O)c3cc(S(=O)(=O)c4ccccc4)ccc3C(F)(F)F)CC2)cc1 [Example 718, N-[1-(4-tert-butylbenzoyl)piperidin-4-yl]-5-(phenylsulfonyl)-2-(trifluoromethyl)benzenesulfonamide] | 6.40 | 6.67 | 6.7

Continued by rising pIC50 (SFRP-1 [1]), values first:

pIC50 (SFRP-1 [1]) | pEC50 (SFRP-1 [2]) | fold induction at 10 µM (SFRP-1 [2]) | SMILES
6.40 | 5.97 | 3.5 | CCOC(=O)NC(=S)N1CCC(NS(=O)(=O)c2cc(S(=O)(=O)c3ccc(F)cc3)ccc2C(C)C)CC1 [Example 693, ethyl({4-[({5-[(4-fluorophenyl)sulfonyl]-2-isopropylphenyl}sulfonyl)amino]piperidin-1-yl}carbonothioyl)carbamate]
6.52 | 5.93 | 3.7 | COc1ccc(C(=O)N2CCC(NS(=O)(=O)c3cc(S(=O)(=O)c4ccccc4)ccc3C(F)(F)F)CC2)c(OC)c1 [Example 708, N-[1-(2,4-dimethoxybenzoyl)piperidin-4-yl]-5-(phenylsulfonyl)-2-(trifluoromethyl)benzenesulfonamide]
6.52 | 5.03 | 3.3 | O=C(c1ccc(C(F)(F)F)c(F)c1)N1CCC(NS(=O)(=O)c2cc(S(=O)(=O)c3ccccc3)ccc2C(F)(F)F)CC1 [Example 711, N-{1-[3-fluoro-4-(trifluoromethyl)benzoyl]piperidin-4-yl}-5-(phenylsulfonyl)-2-(trifluoromethyl)benzenesulfonamide]
6.52 | 5.75 | 4.2 | O=C(c1ccc(F)cc1Cl)N1CCC(NS(=O)(=O)c2cc(S(=O)(=O)c3ccccc3)ccc2C(F)(F)F)CC1 [Example 716, N-[1-(2-chloro-4-fluorobenzoyl)piperidin-4-yl]-5-(phenylsulfonyl)-2-(trifluoromethyl)benzenesulfonamide]
6.70 | 6.10 | 3.5 | O=C(c1ccc(F)c(F)c1)N1CCC(NS(=O)(=O)c2cc(S(=O)(=O)c3ccccc3)ccc2C(F)(F)F)CC1 [Example 705, N-[1-(3,4-difluorobenzoyl)piperidin-4-yl]-5-(phenylsulfonyl)-2-(trifluoromethyl)benzenesulfonamide]
6.70 | 6.73 | 4.2 | COc1cccc(OC)c1C(=O)N1CCC(NS(=O)(=O)c2cc(S(=O)(=O)c3ccccc3)ccc2C(F)(F)F)CC1 [Example 707, N-[1-(2,6-dimethoxybenzoyl)piperidin-4-yl]-5-(phenylsulfonyl)-2-(trifluoromethyl)benzenesulfonamide]
6.72 | 5.15 | 2.1 | COc1ccc(NC(=S)N2CCC(NS(=O)(=O)c3cc(S(=O)(=O)c4ccc(F)cc4)ccc3C(C)C)CC2)cc1 [Example 695, 4-[({5-[(4-fluorophenyl)sulfonyl]-2-isopropylphenyl}sulfonyl)amino]-N-(4-methoxyphenyl)piperidine-1-carbothioamide]
6.74 | 6.30 | 3.7 | O=C(c1cc(F)cc(F)c1)N1CCC(NS(=O)(=O)c2cc(S(=O)(=O)c3ccccc3)ccc2C(F)(F)F)CC1 [Example 706, N-[1-(3,5-difluorobenzoyl)piperidin-4-yl]-5-(phenylsulfonyl)-2-(trifluoromethyl)benzenesulfonamide]
6.77 | 5.89 | 5.3 | O=C(c1c(F)cc(F)cc1F)N1CCC(NS(=O)(=O)c2cc(S(=O)(=O)c3ccccc3)ccc2C(F)(F)F)CC1 [Example 717, 5-(phenylsulfonyl)-N-[1-(2,4,6-trifluorobenzoyl)piperidin-4-yl]-2-(trifluoromethyl)benzenesulfonamide]
6.80 | 5.92 | 4.8 | COc1ccccc1C(=O)N1CCC(NS(=O)(=O)c2cc(S(=O)(=O)c3ccccc3)ccc2C(F)(F)F)CC1 [Example 703, N-[1-(2-methoxybenzoyl)piperidin-4-yl]-5-(phenylsulfonyl)-2-(trifluoromethyl)benzenesulfonamide]
